The text below walks through data of US20250197671A1, “IRRADIATION-CROSSLINKABLE SILICONE COMPOSITION COMPRISING PT(OCTANE-2,4-DIONE)2 AS A CATALYST” (ELKEM SILICONES FRANCE SAS, priority 2022, published 2025).

The nature of data set [1]: Photo-DSC of silicone composition (time and value of thermal peak). Particulars: 365 nm, 14.4 mW/cm^2, 10 ppm Pt, N2 purge.
Data set [2] can be described thus: Solubility of the catalyst in hexamethyldisiloxane (HMDSO). It counts as physicochemical. The source says: Continue additions until obtaining a clear medium, without observing precipitate at the end of stirring.
Data set [3] can be described thus: Solubility / appearance of catalyst in the silicone composition. Particulars: Photo-DSC formulation, organopolysiloxane A + B, 10 ppm Pt (Example 3).
Data set [4] can be described thus: Crosslinking time of silicone composition under UV LED irradiation (catalyst activity). Particulars: UV LED 365 nm, 10 ppm Pt, SiH/Si(vinyl)=2:1, bulk setting time. On the procedure: Irradiation: UV LED lamp with a wavelength of 365 nm.
The crosslinking time is measured. It corresponds to the bulk setting time of the system (the bar magnet can no longer stir the system).

Data set [5] deals with Escherichia coli WP2 (uvrA-) (pKM 101). Nature of the data set: Ames test (OECD test 471, Bacterial Reverse Mutation Test). It counts as cell-based. Particulars: with or without metabolic activation; 5000, 1500, 150 and 50 μg/plate. On the procedure:
(§1) In fact, this compound was analyzed according to the Ames test: the Ames test is a widely used method which uses bacteria for verifying whether a given chemical product may cause DNA mutations in the tested organism.
(§2) Toxicity test (Ames Test, according to the OECD guidelines for chemical product tests-test 471: Bacterial Reverse Mutation Test): Solutions were prepared with Pt(octane-2,4-dione)2.

Data set [6] deals with Salmonella typhimurium TA 1535, TA 1537, TA 98, TA 100. The description is as above. Particulars: with or without metabolic activation; 5000, 1500, 150 and 50 μg/plate. It counts as cell-based. On the procedure:
as §1, §2

Data set [7] can be described thus: Stability of the catalysed silicone solution without irradiation. Particulars: with organopolysiloxanes A and B, 10 ppm Pt. It counts as physicochemical. On the procedure:
A solution comprising a catalyst C1 or C5, together with organopolysiloxanes A and B was prepared according to example 2 (concentration in metal Pt of 10 ppm).
The stability of the solutions was then determined.

The conditions of data set [8]: H361-CMR Reproductive Toxicity Category 2; cited from earlier work.

Like-named read-outs stand apart in the source and are kept apart here.

Consider `CCC(=O)C=C(CC)[O][Pt][O]C(=CC(=O)CC)CC` [Catalyst C3, Pt(heptane-3,5-dione)2], for which, in data set [1], the “Time to arrive at the thermal peak” value stood at 240 s and the “Value of the thermal peak (mW/s)” value is reported as 0.53 mW/s. Also, the Solubility in data set [2] is reported as 2500 ppm Pt. In data set [3], the Appearance entry is “Clear yellow”.

For trans Pt(octane-2,4-dione)2 [C1 Trans], in data set [1], the “Time to arrive at the thermal peak” value is given as 140 s and the “Value of the thermal peak (mW/s)” value amounted to 0.78 mW/s. Moreover, the Appearance result in data set [3] is on record as “Soluble clear”.

Turning to `CCC(=O)C=C(C)[O][Pt][O]C(C)=CC(=O)CC` [Catalyst C4, Pt(hexane-2,4-dione)2], in data set [1], the “Time to arrive at the thermal peak” value was found to be 235 s and the “Value of the thermal peak (mW/s)” value was 0.47 mW/s. The same compound displayed a Solubility in data set [2] (in hexamethyldisiloxane (HMDSO) at 20° C.) of 500 ppm Pt. The Appearance entry in data set [3] is reported as “Hazy yellow”.

As for cis-Pt(octane-2,4-dione)2 [C1 Cis], in data set [1], the “Time to arrive at the thermal peak” value worked out at 140 s and the “Value of the thermal peak (mW/s)” value turned out to be 0.85 mW/s. For the same compound, the Appearance result in data set [3] is “Soluble clear”.

For “Pt(octane-2,4-dione)2 [C1 Trans:cis ratio = 11:89]”, the Crosslinking time in data set [4] worked out at 1 min.

On to Pt(octane-2,4-dione)2 [Catalyst C1], for which the “mutagenic modification (Ames test)” value in data set [5] and in data set [6] was “did not induce any mutagenic modification” each time. The same compound registered a Solubility in data set [2] of 7000 ppm Pt. In addition, the “time solution remained stable” value was “over 7 hours” in data set [7] (exposed to ambient light) and “over 20 days” in data set [7] (protected from light).

Consider `CC(=O)/C=C(/C)O.CC(=O)/C=C(/C)O.[Pt]` [Catalyst C2, Pt(acac)2], for which, in data set [1], the “Time to arrive at the thermal peak” value amounted to 140 s and the “Value of the thermal peak (mW/s)” value was 0.65 mW/s. Besides, in data set [8], the reproductive toxicity classification entry was “suspected of damaging fertility or the unborn child”.
